According to US9751869B2, “LXR modulators” (BRISTOL-MYERS SQUIBB COMPANY, priority 2013, dated 2017):

Molecular target: T1, LXRβ (Homo sapiens, UniProt P55055)
T1 construct: Co-transfection expression plasmids, comprising full-length LXRα (pCMX-h LXRα or LXRβ (pCMX-hLXRβ)); expressed in transfected cells; host or cells: CV-1 African green monkey kidney cells, transient transfection with pCMX-hLXRβ
T1 sequence (P55055 1-460): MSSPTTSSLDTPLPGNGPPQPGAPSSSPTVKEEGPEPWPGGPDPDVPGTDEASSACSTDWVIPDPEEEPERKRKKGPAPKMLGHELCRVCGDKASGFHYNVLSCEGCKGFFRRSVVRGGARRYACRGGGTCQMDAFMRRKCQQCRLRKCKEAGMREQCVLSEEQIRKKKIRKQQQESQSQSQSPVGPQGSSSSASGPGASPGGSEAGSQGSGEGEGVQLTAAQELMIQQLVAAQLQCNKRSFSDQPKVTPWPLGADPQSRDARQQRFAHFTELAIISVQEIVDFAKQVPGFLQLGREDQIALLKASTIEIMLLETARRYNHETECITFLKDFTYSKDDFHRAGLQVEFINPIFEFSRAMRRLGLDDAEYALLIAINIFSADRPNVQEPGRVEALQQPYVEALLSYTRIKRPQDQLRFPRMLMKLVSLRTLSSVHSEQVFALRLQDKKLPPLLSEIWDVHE
T1 sequence (P19793 1-462 partner): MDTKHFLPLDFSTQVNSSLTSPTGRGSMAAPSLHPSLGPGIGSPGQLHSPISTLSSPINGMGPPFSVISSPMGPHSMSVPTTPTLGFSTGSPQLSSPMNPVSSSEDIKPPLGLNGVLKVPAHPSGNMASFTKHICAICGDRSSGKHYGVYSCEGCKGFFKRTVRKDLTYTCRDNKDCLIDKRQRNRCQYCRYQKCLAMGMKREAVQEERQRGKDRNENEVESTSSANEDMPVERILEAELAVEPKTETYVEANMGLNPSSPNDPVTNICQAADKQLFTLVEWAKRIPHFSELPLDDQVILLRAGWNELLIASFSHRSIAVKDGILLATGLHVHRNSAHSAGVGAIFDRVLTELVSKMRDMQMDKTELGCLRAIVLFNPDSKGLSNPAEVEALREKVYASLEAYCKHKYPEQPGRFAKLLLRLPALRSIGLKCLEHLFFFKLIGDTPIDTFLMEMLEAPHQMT
Assay: LXR/LXRE co-transfection assay (luciferase reporter) in CV-1 cells, LXRβ
Type: cell-based
Conditions: for EC50: CV-1 cells transfected with pCMX-hLXRβ and LXREx1-Tk-Luciferase, 20 hours incubation, read-out: LXRbeta agonism EC50; for Emax / LXRbeta % EFFICACY: CV-1 cells, relative to maximum response of high control N-(3-((4-fluorophenyl)-(naphthalene-2-sulfonyl)amino)propyl)-2,2-dimethylpropionamide; for Emax: read-out: LXRbeta % EFFICACY
In short: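 Luciferase read-out after 20 h compound treatment at 37 °C of CV-1 cells carrying transfected hLXRβ plus one-copy LXRE reporter, endogenous RXR partnering. Sigmoidal fit of 10-point half-log curves (4 wells each) gave EC50; % efficacy versus maximal response of the propionamide reference agonist.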

Cc1nc(-c2ccc3c(c2)OC(F)(F)O3)c(-c2cc(-c3cc(F)c(CO)c(S(C)(=O)=O)c3)ccc2-c2cc(C(C)(C)O)nn2C)o1 [Example 92, 2-(5-(3-(4-(2,2-difluorobenzo[d][1,3]dioxol-5-yl)-2-methyloxazol-5-yl)-3′-fluoro-4′-(hydroxymethyl)-5′-(methylsulfonyl)biphenyl-4-yl)-1-methyl-1H-pyrazol-3-yl)propan-2-ol]
EC50: 105 nM | Emax: 38%

Cc1nc(-c2ccc(OC(F)(F)F)cc2)c(-c2cc(-c3cc(F)c(CO)c(S(C)(=O)=O)c3)ccc2-c2cc(C(F)(F)F)nn2C)o1 [Example 93, (3-fluoro-4′-(1-methyl-3-(trifluoromethyl)-1H-pyrazol-5-yl)-3′-(2-methyl-4-(4-(trifluoromethoxy)phenyl)oxazol-5-yl)-5-(methylsulfonyl)biphenyl-4-yl)methanol]
EC50: 16 nM | Emax: 93%

Cc1nc(-c2ccc3c(c2)OC(F)(F)O3)c(-c2cc(-c3cccc(S(C)(=O)=O)c3)ccc2-c2cc(C(C)(F)F)nn2C)o1 [Example 94, 4-(2,2-difluorobenzo[d][1,3]dioxol-5-yl)-5-(4-(3-(1,1-difluoroethyl)-1-methyl-1H-pyrazol-5-yl)-3′-(methylsulfonyl)biphenyl-3-yl)-2-methyloxazole]
EC50: 32 nM | Emax: 87%

Cc1nc(-c2ccc3c(c2)OC(F)(F)O3)c(-c2cc(-c3cc(F)c(CO)c(S(C)(=O)=O)c3)ccc2-c2cc(C(C)(F)F)nn2C)o1 [Example 95, (3′-(4-(2,2-difluorobenzo[d][1,3]dioxol-5-yl)-2-methyloxazol-5-yl)-4′-(3-(1,1-difluoroethyl)-1-methyl-1H-pyrazol-5-yl)-3-fluoro-5-(methylsulfonyl)biphenyl-4-yl)methanol]
EC50: 19 nM | Emax: 65%

Cc1nc(-c2ccc3c(c2)OC(F)(F)O3)c(-c2cc(-c3cccc(S(C)(=O)=O)c3)ccc2-c2cc(C(C)(C)C(N)=O)nn2C)o1 [Example 96, 2-(5-(3-(4-(2,2-difluorobenzo[d][1,3]dioxol-5-yl)-2-methyloxazol-5-yl)-3′-(methylsulfonyl)biphenyl-4-yl)-1-methyl-1H-pyrazol-3-yl)-2-methylpropanamide]
EC50: 126 nM | Emax: 61%

Cc1nc(-c2ccc3c(c2)OC(F)(F)O3)c(-c2cc(-c3cc(F)c(CO)c(S(C)(=O)=O)c3)ccc2-c2cc(C(C)(C)C#N)nn2C)o1 [Example 97, 2-(5-(3-(4-(2,2-difluorobenzo[d][1,3]dioxol-5-yl)-2-methyloxazol-5-yl)-3′-fluoro-4′-(hydroxymethyl)-5′-(methylsulfonyl)biphenyl-4-yl)-1-methyl-1H-pyrazol-3-yl)-2-methylpropanenitrile]
EC50: 48 nM | Emax: 82%

Cc1nc(-c2ccc3c(c2)OC(F)(F)O3)c(-c2cc(-c3cccc(S(C)(=O)=O)c3)ccc2-c2cc(CO)nn2C)o1 [Example 98, (5-(3-(4-(2,2-difluorobenzo[d][1,3]dioxol-5-yl)-2-methyloxazol-5-yl)-3′-(methylsulfonyl)-[1,1′-biphenyl]-4-yl)-1-methyl-1H-pyrazol-3-yl)methanol]
EC50: 258 nM | Emax: 57%

Cc1nc(-c2ccc3c(c2)OC(F)(F)O3)c(-c2cc(-c3cc(F)c(CO)c(S(C)(=O)=O)c3)ccc2-c2cc(CO)nn2C)o1 [Example 99, (5-(3-(4-(2,2-difluorobenzo[d][1,3]dioxol-5-yl)-2-methyloxazol-5-yl)-3′-fluoro-4′-(hydroxymethyl)-5′-(methylsulfonyl)-[1,1′-biphenyl]-4-yl)-1-methyl-1H-pyrazol-3-yl)methanol]
EC50: 279 nM | Emax: 26%

Cc1nc(-c2ccc3c(c2)OC(F)(F)O3)c(-c2cc(-c3cccc(S(C)(=O)=O)c3)ccc2-c2cc(-c3nnco3)nn2C)o1 [Example 100, 2-(5-(3-(4-(2,2-difluorobenzo[d][1,3]dioxol-5-yl)-2-methyloxazol-5-yl)-3′-(methylsulfonyl)-[1,1′-biphenyl]-4-yl)-1-methyl-1H-pyrazol-3-yl)-1,3,4-oxadiazole]
EC50: 193 nM | Emax: 52%

Cc1nc(-c2ccc3c(c2)OC(F)(F)O3)c(-c2cc(-c3cccc(S(C)(=O)=O)c3)ccc2-c2cc(C(C)O)nn2C)o1 (stereo not drawn) [Example 101, 1-(5-(3-(4-(2,2-difluorobenzo[d][1,3]dioxol-5-yl)-2-methyloxazol-5-yl)-3′-(methylsulfonyl)-[1,1′-biphenyl]-4-yl)-1-methyl-1H-pyrazol-3-yl)ethanol]
EC50: 79 nM | LXRbeta % EFFICACY: 50%

Cc1nc(-c2ccc3c(c2)OC(F)(F)O3)c(-c2cc(-c3cccc(S(C)(=O)=O)c3)ccc2-c2cc(C(C)O)nn2C)o1 (stereo not drawn) [Example 102]
EC50: 227 nM | LXRbeta % EFFICACY: 96%

Cc1nc(-c2ccc3c(c2)OC(F)(F)O3)c(-c2cc(-c3cc(F)c(CO)c(S(C)(=O)=O)c3)ccc2-c2cc(C(C)O)nn2C)o1 (stereo not drawn) [Example 103, 1-(5-(3-(4-(2,2-difluorobenzo[d][1,3]dioxol-5-yl)-2-methyloxazol-5-yl)-3′-fluoro-4′-(hydroxymethyl)-5′-(methylsulfonyl)-[1,1′-biphenyl]-4-yl)-1-methyl-1H-pyrazol-3-yl)ethanol]
EC50: 148 nM | Emax: 47%

Cc1nc(-c2ccc3c(c2)OC(F)(F)O3)c(-c2cc(-c3cc(F)c(CO)c(S(C)(=O)=O)c3)ccc2-c2cc(C(C)O)nn2C)o1 (stereo not drawn) [Example 104, 1-(5-(3-(4-(2,2-difluorobenzo[d][1,3]dioxol-5-yl)-2-methyloxazol-5-yl)-3′-fluoro-4′-(hydroxymethyl)-5′-(methylsulfonyl)-[1,1′-biphenyl]-4-yl)-1-methyl-1H-pyrazol-3-yl)ethanol]
EC50: 54 nM | LXRbeta % EFFICACY: 56%

Cc1nc(-c2ccc3c(c2)OC(F)(F)O3)c(-c2cc(-c3cc(F)c(CO)c(S(C)(=O)=O)c3)ccc2-c2cc(C(F)(F)CO)nn2C)o1 [Example 105, 2-(5-(3-(4-(2,2-difluorobenzo[d][1,3]dioxol-5-yl)-2-methyloxazol-5-yl)-3′-fluoro-4′-(hydroxymethyl)-5′-(methylsulfonyl)-[1,1′-biphenyl]-4-yl)-1-methyl-1H-pyrazol-3-yl)-2,2-difluoroethanol]
EC50: 74 nM | Emax: 66%

Cc1nc(-c2ccc3c(c2)OC(F)(F)O3)c(-c2cc(-c3cccc(S(C)(=O)=O)c3)ccc2-c2cc(C(F)(F)CO)nn2C)o1 [Example 106, 2-(5-(3-(4-(2,2-difluorobenzo[d][1,3]dioxol-5-yl)-2-methyloxazol-5-yl)-3′-(methylsulfonyl)-[1,1′-biphenyl]-4-yl)-1-methyl-1H-pyrazol-3-yl)-2,2-difluoroethanol]
EC50: 71 nM | Emax: 64%

Cc1nc(-c2ccc3c(c2)OC(F)(F)O3)c(-c2cc(-c3cccc(S(C)(=O)=O)c3)ccc2-c2cc(C(=O)NC3CC3)nn2C)o1 [Example 107, N-cyclopropyl-5-(3-(4-(2,2-difluorobenzo[d][1,3]dioxol-5-yl)-2-methyloxazol-5-yl)-3′-(methylsulfonyl)-[1,1′-biphenyl]-4-yl)-1-methyl-1H-pyrazole-3-carboxamide]
EC50: 1250 nM | Emax: 37%

Cc1nc(-c2ccc3c(c2)OC(F)(F)O3)c(-c2cc(-c3cc(F)c(CO)c(S(C)(=O)=O)c3)ccc2-c2cc(C(=O)NC3CC3)nn2C)o1 [Example 108, N-cyclopropyl-5-(3-(4-(2,2-difluorobenzo[d][1,3]dioxol-5-yl)-2-methyloxazol-5-yl)-3′-fluoro-4′-(hydroxymethyl)-5′-(methylsulfonyl)-[1,1′-biphenyl]-4-yl)-1-methyl-1H-pyrazole-3-carboxamide]
EC50: 529 nM | Emax: 30%

Cc1nc(-c2ccc3c(c2)OC(F)(F)O3)c(-c2cc(-c3cccc(S(C)(=O)=O)c3)ccc2-c2cc(C(=O)NCC3CC3)nn2C)o1 [Example 109, N-(cyclopropylmethyl)-5-(3-(4-(2,2-difluorobenzo[d][1,3]dioxol-5-yl)-2-methyloxazol-5-yl)-3′-(methylsulfonyl)-[1,1′-biphenyl]-4-yl)-1-methyl-1H-pyrazole-3-carboxamide]
EC50: 356 nM | Emax: 52%
